Data: ChEMBL document CHEMBL1201862, “PubChem BioAssay data set” (2004)
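In this assay, cells in 96-well plates receive the compound at five concentrations for 48 hours. Endpoints are linearly interpolated between the surrounding concentrations. GI50: concentration for 50% inhibition of growth.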 Active and inactive are the calls of the source. Rule as the data show it: active = GI50 up to about 1.1 µM and inactive = higher.

Key:
Experiment in all cases: DTP human tumour cell line panel, 48 h
A549 = tested on: A549
CCRF-CEM = tested on: CCRF-CEM
COLO 205 = tested on: COLO 205
DMS-273 = tested on: DMS-273
HCT-116 = tested on: HCT-116
KM12 = tested on: KM12
M14 = tested on: M14
M19-MEL = tested on: M19-MEL
MDA-MB-231 = tested on: MDA-MB-231
Malme-3M = tested on: Malme-3M
NCI-H226 = tested on: NCI-H226
NCI-H522 = tested on: NCI-H522
OVCAR-4 = tested on: OVCAR-4
RXF 393 = tested on: RXF 393
SF-295 = tested on: SF-295
SF-539 = tested on: SF-539
SK-OV-3 = tested on: SK-OV-3
SNB-19 = tested on: SNB-19
T47D = tested on: T47D
TK-10 = tested on: TK-10

SMILES	GI50 (A549)	GI50 (CCRF-CEM)	GI50 (COLO 205)	GI50 (DMS-273)	GI50 (HCT-116)	GI50 (KM12)	GI50 (M14)	GI50 (M19-MEL)	GI50 (MDA-MB-231)	GI50 (Malme-3M)	GI50 (NCI-H226)	GI50 (NCI-H522)	GI50 (OVCAR-4)	GI50 (RXF 393)	GI50 (SF-295)	GI50 (SF-539)	GI50 (SK-OV-3)	GI50 (SNB-19)	GI50 (T47D)	GI50 (TK-10)
Cc1c2cc[n+](C)cc2c(C)c2c1[nH]c1ccc(O)cc12 [ELLIPTINIUM ACETATE]	0.447 µM (active)	4.82 µM (inactive)	21.8 µM (inactive)	11.7 µM (inactive)	20.2 µM (inactive)	2.53 µM (inactive)	1.08 µM (active)	4.7 µM (inactive)	50.9 µM (inactive)	1.75 µM (inactive)	1.12 µM (inactive)	4.31 µM (inactive)	38.3 µM (inactive)	62.5 µM (inactive)	5.79 µM (inactive)	12 µM (inactive)	46.5 µM (inactive)	0.904 µM (active)	0.251 µM (active)	68.2 µM (inactive)
CCCCC1=C(Br)C(=C(Br)Br)OC1=O	17.1 µM (inactive)	2.45 µM (inactive)	3.01 µM (inactive)	2.74 µM (inactive)	3.02 µM (inactive)	3.29 µM (inactive)		2.74 µM (inactive)		2.25 µM (inactive)	4 µM (inactive)	1.86 µM (inactive)	1.79 µM (inactive)	2.09 µM (inactive)	10.6 µM (inactive)	3.26 µM (inactive)	17.6 µM (inactive)	7.89 µM (inactive)		
COc1c2c(c(O)c3c4c(c(C)cc13)C1OC3(C(OC)OC5CC(C)(O)C(OC6CC(C)(O)C(O)C(C)O6)C(C)O5)OC1C(OC)(O4)C31CO1)C(=O)C(O)CC2OC1CC(C)(O)C(OC(C)=O)C(C)O1 (stereo not given)	< 0.01 µM (active)	< 0.01 µM (active)	< 0.01 µM (active)	< 0.01 µM (active)	< 0.01 µM (active)	< 0.01 µM (active)	< 0.01 µM (active)	< 0.01 µM (active)		< 0.01 µM (active)	< 0.01 µM (active)	< 0.01 µM (active)	< 0.01 µM (active)	< 0.01 µM (active)	< 0.01 µM (active)	< 0.01 µM (active)	< 0.01 µM (active)	< 0.01 µM (active)		< 0.01 µM (active)
COC(=O)C1OC(Oc2cc(O)c3c(=O)cc(-c4ccc(O)cc4)oc3c2)C(O)C(O)C1O (stereo not given)	> 100 µM (inactive)	> 100 µM (inactive)	> 100 µM (inactive)	> 100 µM (inactive)	> 100 µM (inactive)	> 100 µM (inactive)		> 100 µM (inactive)		> 100 µM (inactive)	> 100 µM (inactive)	> 100 µM (inactive)	> 100 µM (inactive)	> 100 µM (inactive)	> 100 µM (inactive)	> 100 µM (inactive)	> 100 µM (inactive)	> 100 µM (inactive)		
